“Also recorded” adds a separate entry of the source.
What was measured:
gerbils [1] = test: Preliminary dose study and observations in gerbils following surgery; type: in vivo, gerbil
male Wistar rats [2] = test: MCA embolic stroke in rats, modified neurological severity score / neurobehavioral outcomes
Description: Male Wistar rats at ages of 8-12 weeks, weighing 300-450 g were used in all experiments. A donor rat was anesthetized with 3.5% Isoflurane, and anesthesia was maintained with 1.0-1.5% Isoflurane in 70% N2O and 30% O2 using a face mask. […] Rats were then anesthetized with 3.5% Isoflurane, and anesthesia was maintained with 1.0-1.5% Isoflurane in 70% N2O and 30% O2 using a face mask throughout the surgical procedure. The animal's muzzle was placed in the face mask 2 cm from the surgical site. Rectal temperature was maintained at 37±″0.5° C. throughout the surgical procedure using an electric heating system. Under a surgical operating microscope) the right common carotid arteries (CCA), the right external carotid artery (ECA) and the internal carotid artery (ICA) were isolated via a 3 cm ventral neck midline incision. A 6-0 silk suture was loosely tied at the origin of the ECA and ligated at the distal end of the ECA. The right CCA and ICA was temporarily clamped using a curved microvascular clip (Codman & Shurtleff, Inc., Randolf, MAP, USA). A modified PE-50 catheter filled with a single clot (˜1 μl), was attached to a 100-μl Hamilton syringe, and introduced into the ECA lumen through a small puncture. The suture around the origin of the ECA was tightened around the intraluminal catheter to prevent bleeding, and the microvascular clip was removed. The catheter was gently advanced from the ECA into the lumen of the ICA. The clot along with 5 μl of saline in the catheter was injected into the ICA over 10 seconds. The catheter was withdrawn from the right ECA immediately after injection. The right ECA was ligated. The duration of the entire surgical procedure was approximately 25 min.
Implantation of osmotic pumps for the purpose of continuous IV infusion occurred at both 6 and 12 hours after delivery of the 4cm clot. Experimental control for the experiment was achieved by substituting methamphetamine for physiological saline. Briefly, at 6 or 12 hours post stroke animals were re-anesthetized using 1-3% isoflurane. After a state of anesthesia was achieved the right side groin area was shaved. After shaving, surgical tape was utilized to remove excess hair. The area was scrubbed with betadine and allowed to dry.
A small incision was made and the groin area was blunt dissected to expose the femoral vein. The femoral vein was separated with surgical tweezers and the distal end was permanently ligated using 6-0 silk thread. The proximal end was ligated and a 0.2 mm incision (approximate) was made in the femoral vein. A 2.5 cm length of polyvinyl tubing (OD 0.07mm) connected to a pre-loaded osmotic pump (Alzet Corp. model 2001D; 6.6 microliters per hour for 24 hrs) was inserted into the vein and gently pushed up towards midline of the body. The tubing was inserted until 0.5 cm was exposed from the vein. The tubing was tied around the vein in two locations using 6-0 silk spaced approximately 2 mm apart. A small pocket was blunt dissected along the groin/abdominal area. The osmotic pump was inserted into the area on the outer wall of the abdomen underneath the skin and sutured into the abdominal fascia using 4-0 synthetic suture. The incision was closed using 4-0 synthetic suture. At 48-72 hours after initial insertion the animal was anesthetized, the groin area was scrubbed with betadine, the incision was reopened, blunt dissected, and the pump exposed. The sutures holding the pump and tubing in place were cut, the pump removed, and the femoral vein was permanently ligated using 6-0 silk suture. The pump was discarded and the incision was closed using 4-0 synthetic suture.

male Wistar rats [3] = test: MCA embolic stroke in rats, foot fault; type: in vivo, rat; conditions: 1.0 mg/kg/hr, started 0, 6 or 12 hours after stroke
male Wistar rats [4] = test: Traumatic brain injury (fluid percussion) in rats, tolerability; type: in vivo, rat; conditions: 0.5 mg/kg/hr 24 hr IV infusion plus bolus after TBI
Description: Three groups of male Wistar rats/group were used in this study. The animals were given 0 (vehicle control; saline), 0 (sham controls) or 0.5 mg/kg/hr MA via a 24 hr continuous IV infusion starting 3 hr after […] on Day 0. The test article was administered via an Alzet mini-osmotic pump at a rate of 0.0073 mL/hour. The dose concentration of MA loaded in the Alzet pump varied between animals (45.8-65.0 mg/mL), and was based on individual animal body weight on Day 0 and the dose concentration that would yield 0.5 mg/kg/hr MA at an infusion rate of 0.0073 mL/hr. Dosing of the animals was staggered over a 4-month period.
Prior to test article administration, all rats were subjected to a surgical procedure to produce a fluid percussion injury. Adult Sprague-Dawley rats (male, 350-500 g) are anesthetized with isoflurane anesthesia (1% isofluorane in 1 L/min O2) via face mask to effect for a small craniectomy (4.80 mm) and placement of a rigid Luer-loc needle hub (3 mm inside diameter). After luer lock hub placement, the hub is connected to the Cell Injury Controller through high pressure rubber tubing that delivers an fluid pulse to the dura. […] The righting reflex time after injury was recorded. […] Animals were monitored 3-4 times a day for the first 48 hr following surgery and daily thereafter for 14 days.

male Wistar rats [5] = test: MCA embolic stroke in rats, infarct size by TTC staining; type: in vivo, rat
interleukin 6 (IL6) gene = test: Quantitative real time PCR of hippocampal gene expression after IP injection; type: in vivo, Sprague-Dawley rats; conditions: 6 hours after single IP 1.0 mg/kg
male Wistar rats [6] = test: MCA embolic stroke in rats, adhesive tape removal test; type: in vivo, rat
neuropeptide Y = test: Quantitative real time PCR of hippocampal gene expression after IP injection; type: in vivo, Sprague-Dawley rats; conditions: 6 hours after single IP 1.0 mg/kg, vs saline
neurotrophic factor 3 = test: as above; type: in vivo, Sprague-Dawley rats; conditions: 6 hours after single IP 1.0 mg/kg, vs saline
hippocampal CA1 region = test: Gerbil 5-min 2-VO transient cerebral ischemia, histological rating of hippocampal CA1; type: in vivo; conditions: for damage to hippocampal CA1 following ischemic insult: MAP 5 mg/kg 1-2 minutes after ischemic insult
Description: (§1) Gerbils were anesthetized with isoflurane and core-body temperature maintained at 37-38 C during surgery using a homeothermic blanket (Harvard Apparatus, South Natick, USA). A midline incision was made in the neck and the common carotid arteries were isolated and occluded for 5 min using 85-gm pressure aneurysm clips (ISCH; n=14). A second group of gerbils (SHAM; n=14) underwent the identical procedure except the carotid arteries were not clamped. The incision was sutured and animals received MAP (5 mg/kg; i.p) or equal volume of vehicle (saline; 0 mg) within 2 minutes of reperfusion. Animals were placed in a warmed cage, and observed for 30 minutes. Tylenol (8 mg/ml) was added to drinking water to provide postoperative analgesia.
(§2) Each gerbil was tested 48 hrs following surgery in an open-field apparatus consisting of a metal screen floor 77 cm×77 cm with walls 15 cm in height. Animals were placed in the center region and permitted to explore the novel environment for 5 minutes. Behavioral data (distance traveled, speed) were collected using an automated tracking system (ANY-maze, Stoelting, Ill.) and evaluated separately using ANOVA and the appropriate post hoc test (P<0.05 considered significant). Twenty-one days postsurgery, gerbils were euthanized with CO2 and perfused with phosphate buffered saline followed by 4% paraformaldehyde. Tissue from sham gerbils treated with MAP ([…]) was not evaluated since acute administration of MAP was not expected to histologically alter the hippocampus of this group. Brains were removed and post-fixed for at least 48 hrs prior to collection of 40 μm vibratome sections through the hippocampal region. Sections were mounted on slides and stained with cresyl violet. Damage to the hippocampal CA1 region was evaluated without knowledge of treatment condition by two independent observers using a 4 point rating scale described elsewhere (Babcock et al. 1993). A score of 0 (4-5 compact layers of normal neuronal bodies), 1 (4-5 compact layers with presence of some altered neurons), 2 (spares neuronal bodies with “ghost spaces” and/or glial cells between them), 3 (complete absence or presence of only rare normal neuronal bodies with intense gliosis of the CA1 subfield) was assigned for each animal. Ratings were averaged and evaluated using nonparametric statistics (Kruskal-Wallis and Mann-Whitney U test; P<0.05 considered significant).

[7] = test system: interleukin 10 (IL10) gene; test: Quantitative real time PCR of hippocampal gene expression after IP injection; type: in vivo, Sprague-Dawley rats
[8] = test system: brain derived neurotrophic factor; test: as above; type: in vivo, Sprague-Dawley rats; conditions: 6 hours after single IP 1.0 mg/kg, vs saline
gerbils [9] = test: Gerbil 5-min 2-VO transient cerebral ischemia, open field activity; type: in vivo; conditions: for distance traveled in open field: tested 48 hrs after surgery, 5 min
Description: as §1, §2

BcL2 = test: Quantitative real time PCR of hippocampal gene expression after IP injection; type: in vivo, Sprague-Dawley rats; conditions: 6 hours after single IP 1.0 mg/kg, vs saline
[10] = rats; cited from earlier work
[11] = 0.1 mg/kg/hr IV infusion 24 hrs, immediately after stroke
[12] = 1.0 mg/kg/hr IV infusion 24 hrs, started 6 hours after stroke
[13] = 1.0 mg/kg/hr IV infusion 24 hrs, started 6 hours after stroke, listed as MAP
[14] = 1.0 mg/kg/hr IV infusion 24 hrs, started 12 hours after stroke, listed as MAP
[15] = 0.5 and 1.0 mg/kg/hr IV infusion 24 hrs, immediately after stroke
[16] = 0.5 and 1.0 mg/kg/hr IV infusion 24 hrs, immediately after stroke, listed as MAP

## CN[C@@H](C)Cc1ccccc1 [methamphetamine]
Gerbils [1]; doses greater than 5 mg/kg (10 and 20 mg/kg)
  lethality in gerbils following surgery: lethal
Gerbils [1]; gerbils, MAP 5 mg/kg i.p. after surgery
  clinical observation after treatment: became piloerect with their tails pointing up
Male Wistar rats [2]; [11]
  neurobehavioral outcomes (neurological severity score): improved neurobehavioral outcomes
Male Wistar rats [2]; [12]
  neurobehavioral outcomes (neurological severity score): significant improvement in neurological severity scores; also recorded: significantly decreased neurobehavioral deficits
Male Wistar rats [2]; [13]
  neurobehavioral outcomes (neurological severity score): improved neurobehavioral outcomes on all testing parameters
Male Wistar rats [2]; 1.0 mg/kg/hr IV infusion 24 hrs, started 12 hours after stroke
  neurobehavioral outcomes (neurological severity score): significant improvement in neurological severity scores; also recorded: significantly decreased neurobehavioral deficits
Male Wistar rats [2]; [14]
  neurobehavioral outcomes (neurological severity score): robust effect on neurobehavioral outcomes
Male Wistar rats [2]; [15]
  neurobehavioral outcomes (neurological severity score): significant improvement in neurological severity scores
Male Wistar rats [2]; [16]
  neurobehavioral outcomes (neurological severity score): improved neurobehavioral outcomes
Male Wistar rats [3]
  foot fault values: significant improvements in foot fault values
Male Wistar rats [4]
  tolerability: well tolerated with no toxicity
Male Wistar rats [5]; [11]
  infarct size / infarct volume at 7 days: No significant reductions in infarct volumes
Male Wistar rats [5]; 0.1 mg/kg/hr IV infusion 24 hrs, immediately after stroke, listed as MAP
  infarct size / infarct volume at 7 days: failed to decrease the infarct size
Male Wistar rats [5]; [12]
  infarct size / infarct volume at 7 days: significant reduction in infarct volumes; also recorded: significantly reduces infarct size
Male Wistar rats [5]; [13]
  infarct size / infarct volume at 7 days: significantly reduced infarct size
Male Wistar rats [5]; [14]
  infarct size / infarct volume at 7 days: still significantly reduces infarct size
Male Wistar rats [5]; [15]
  infarct size / infarct volume at 7 days: reduces brain damage (infarct size); also recorded: significant reduction in infarct volumes
Male Wistar rats [5]; [16]
  infarct size / infarct volume at 7 days: decreased infarct size
Male Wistar rats [5]; 0.5 and 1.0 mg/kg/hr IV infusion 24 hrs, immediately after stroke, listed as Methamphetamine
  infarct size / infarct volume at 7 days: decreases infarct size
Male Wistar rats [5]; infusion beginning 12 hours after stroke
  animals with substantial reduction in infarct volumes: Four out of the nine
Interleukin 6 (IL6) gene
  IL6 expression in hippocampus vs saline: not significantly different from saline treated animals
Male Wistar rats [6]; [11]
  time to remove adhesive tape, day 7 vs day 1: no significant change in the time to remove tape
Male Wistar rats [6]; 1 mg/kg/hr started 6 hours after stroke
  time to remove adhesive tape, day 7 vs day 1: improvement in function was still observed
Male Wistar rats [6]; 1 mg/kg/hr withheld until 12 hours after stroke (data not shown)
  time to remove adhesive tape, day 7 vs day 1: failed to produce an effect
Male Wistar rats [6]; 0.5 or 1.0 mg/kg/hr IV infusion 24 hrs, immediately after stroke
  time to remove adhesive tape, day 7 vs day 1: required significantly less time to remove the tape
Neuropeptide Y
  change in neuropeptide Y gene expression in hippocampus: +192%
Neurotrophic factor 3
  change in neurotrophic factor 3 gene expression in hippocampus: +192%
Hippocampal CA1 region; ISCH+5 mg MAP group, 21 days after ischemic insult
  histological rating score of hippocampal CA1 damage (0-3 scale): 0.07±0.07
Hippocampal CA1 region; 21 days
  damage to hippocampal CA1 following ischemic insult: significantly reduced damage to the hippocampal CA1; also recorded: failed to exhibit any damage to the hippocampus
Hippocampal CA1 region; 21 days, listed as MAP
  damage to hippocampal CA1 following ischemic insult: prevented any significant loss of hippocampal CA1 pyramidal cells
Hippocampal CA1 region; ischemic gerbils treated with MAP 5 mg/kg, 21 days
  animals with any detectable neuronal pathology in the hippocampus: 1 of 7
[7]; 1 hour after single IP 1.0 mg/kg, vs saline
  change in IL10 gene expression in hippocampus: 445%
[7]; 6 hours after single IP 1.0 mg/kg
  IL10 expression in hippocampus vs saline: not significantly different from saline treated animals
[8]
  change in brain derived neurotrophic factor gene expression in hippocampus: +141%
Gerbils [9]; MAP 5 mg/kg i.p., 48 hrs after surgery
  open field activity, SHAM+5 mg vs SHAM+0 mg: failed to significantly alter activity levels
Gerbils [9]; MAP 5 mg/kg i.p., 48 hrs after surgery, listed as MAP
  open field activity, ischemic vs sham gerbils both treated with MAP: not significantly different; also recorded: comparable to control levels
Gerbils [9]; ischemic gerbils, MAP 5 mg/kg i.p. within 2 min of reperfusion
  distance traveled in open field: 66.3 m
Gerbils [9]; sham gerbils, MAP 5 mg/kg i.p.
  distance traveled in open field: 72.7 m
BcL2
  change in BcL2 gene expression in hippocampus: +167%
[10]
  half-life: approximately 1 hr

— US20150290148A1 (priority 2006, published 2015)
